Patent publication US12473298B2, “Amide compounds, preparation method therefor, and use thereof in the medical field” (Shanghai Synergy Pharmaceutical Sciences Co., Ltd., priority 2019, dated 2025)
pIC50: −log10 of the molar value. Where two headings read alike, the source gives them in different places.

What was measured:
[1] = target: Mutant type EZH2(Y641N) (Homo sapiens (Human), UniProt Q15910, Y641N); assay: AlphaLISA, mutant type PRC2 complex EZH2(Y641N); assay type: biochemical; details: read-out: Mutant type EZH2(Y641N) IC50 Nanomoles per Liter
Sequence of Mutant type EZH2(Y641N) (Q15910 whole entry Y641N): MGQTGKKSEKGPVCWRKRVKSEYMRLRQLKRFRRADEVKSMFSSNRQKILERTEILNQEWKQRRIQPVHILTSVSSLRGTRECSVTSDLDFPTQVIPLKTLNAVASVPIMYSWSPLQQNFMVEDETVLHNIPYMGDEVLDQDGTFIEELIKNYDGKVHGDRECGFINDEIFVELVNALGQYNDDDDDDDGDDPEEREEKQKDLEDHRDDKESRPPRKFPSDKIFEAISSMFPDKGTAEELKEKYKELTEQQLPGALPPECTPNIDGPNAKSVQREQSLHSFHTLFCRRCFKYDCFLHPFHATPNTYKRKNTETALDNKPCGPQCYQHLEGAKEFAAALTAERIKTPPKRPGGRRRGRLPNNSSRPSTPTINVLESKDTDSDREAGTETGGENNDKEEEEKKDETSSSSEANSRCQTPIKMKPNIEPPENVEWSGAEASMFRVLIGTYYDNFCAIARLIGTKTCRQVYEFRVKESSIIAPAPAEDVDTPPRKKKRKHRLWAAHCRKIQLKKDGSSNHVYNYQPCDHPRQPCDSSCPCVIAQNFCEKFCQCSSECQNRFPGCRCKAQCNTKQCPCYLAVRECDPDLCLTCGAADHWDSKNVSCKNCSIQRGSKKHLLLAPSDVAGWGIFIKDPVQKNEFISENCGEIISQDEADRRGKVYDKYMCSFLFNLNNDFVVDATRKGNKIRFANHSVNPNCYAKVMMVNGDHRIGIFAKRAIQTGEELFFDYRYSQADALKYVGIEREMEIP
Sequence of Mutant type EZH2(Y641N) (O75530 whole entry partner): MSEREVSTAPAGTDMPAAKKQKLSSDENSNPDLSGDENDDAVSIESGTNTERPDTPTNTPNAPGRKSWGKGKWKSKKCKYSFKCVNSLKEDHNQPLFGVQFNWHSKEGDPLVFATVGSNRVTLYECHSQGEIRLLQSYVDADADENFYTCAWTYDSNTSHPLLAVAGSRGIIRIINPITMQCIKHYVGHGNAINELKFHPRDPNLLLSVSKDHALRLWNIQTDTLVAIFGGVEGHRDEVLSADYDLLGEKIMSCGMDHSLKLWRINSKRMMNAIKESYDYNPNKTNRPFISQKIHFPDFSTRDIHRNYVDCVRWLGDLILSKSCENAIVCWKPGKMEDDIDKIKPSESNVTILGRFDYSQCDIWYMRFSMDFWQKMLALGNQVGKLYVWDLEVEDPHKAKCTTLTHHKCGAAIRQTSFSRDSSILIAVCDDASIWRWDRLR
Sequence of Mutant type EZH2(Y641N) (Q15022 whole entry partner): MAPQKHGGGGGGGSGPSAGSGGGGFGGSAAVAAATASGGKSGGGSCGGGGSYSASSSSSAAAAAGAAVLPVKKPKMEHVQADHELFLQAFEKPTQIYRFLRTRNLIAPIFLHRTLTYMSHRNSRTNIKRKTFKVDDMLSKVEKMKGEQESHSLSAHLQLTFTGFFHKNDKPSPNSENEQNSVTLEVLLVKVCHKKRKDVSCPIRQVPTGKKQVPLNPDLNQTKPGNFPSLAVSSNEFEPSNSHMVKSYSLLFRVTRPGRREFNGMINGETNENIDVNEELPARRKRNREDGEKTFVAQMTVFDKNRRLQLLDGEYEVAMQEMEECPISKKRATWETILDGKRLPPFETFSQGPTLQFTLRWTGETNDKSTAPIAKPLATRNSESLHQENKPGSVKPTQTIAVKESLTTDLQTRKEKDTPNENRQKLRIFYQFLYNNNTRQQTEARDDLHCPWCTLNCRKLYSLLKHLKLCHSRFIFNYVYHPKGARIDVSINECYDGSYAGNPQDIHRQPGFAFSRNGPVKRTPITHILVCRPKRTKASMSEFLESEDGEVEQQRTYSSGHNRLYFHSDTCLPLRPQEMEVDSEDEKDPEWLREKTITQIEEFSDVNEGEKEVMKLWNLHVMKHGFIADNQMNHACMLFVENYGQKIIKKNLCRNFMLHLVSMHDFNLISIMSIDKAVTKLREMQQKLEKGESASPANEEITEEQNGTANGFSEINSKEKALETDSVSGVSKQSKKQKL
Sequence of Mutant type EZH2(Y641N) (Q09028 whole entry partner): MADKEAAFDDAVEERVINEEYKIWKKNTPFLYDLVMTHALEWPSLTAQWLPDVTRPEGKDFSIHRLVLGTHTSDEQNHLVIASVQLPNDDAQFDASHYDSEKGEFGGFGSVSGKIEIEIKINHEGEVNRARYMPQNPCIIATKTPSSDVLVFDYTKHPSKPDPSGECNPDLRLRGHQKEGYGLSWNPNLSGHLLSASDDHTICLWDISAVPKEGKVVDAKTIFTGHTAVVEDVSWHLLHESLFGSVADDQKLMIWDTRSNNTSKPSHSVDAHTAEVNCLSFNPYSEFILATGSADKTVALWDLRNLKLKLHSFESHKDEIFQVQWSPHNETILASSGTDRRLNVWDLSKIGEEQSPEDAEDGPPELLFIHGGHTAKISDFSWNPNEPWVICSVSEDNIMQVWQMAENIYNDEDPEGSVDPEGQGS
Sequence of Mutant type EZH2(Y641N) (Q6ZN18 whole entry partner): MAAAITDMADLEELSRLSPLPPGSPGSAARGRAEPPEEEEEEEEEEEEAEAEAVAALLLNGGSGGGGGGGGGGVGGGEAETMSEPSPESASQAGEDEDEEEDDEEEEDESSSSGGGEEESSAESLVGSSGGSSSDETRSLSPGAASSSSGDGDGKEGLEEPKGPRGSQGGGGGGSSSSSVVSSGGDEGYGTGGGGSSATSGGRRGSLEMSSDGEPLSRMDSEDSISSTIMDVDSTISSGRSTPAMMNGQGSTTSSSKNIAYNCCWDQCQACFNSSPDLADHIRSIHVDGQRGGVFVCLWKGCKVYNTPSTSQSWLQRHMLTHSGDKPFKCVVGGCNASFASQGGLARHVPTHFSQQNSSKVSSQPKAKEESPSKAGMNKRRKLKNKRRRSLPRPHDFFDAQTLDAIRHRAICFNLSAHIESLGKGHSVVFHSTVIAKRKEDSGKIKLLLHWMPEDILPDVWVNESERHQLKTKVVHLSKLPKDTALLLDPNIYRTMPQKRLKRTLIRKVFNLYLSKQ

[2] = system: human diffuse large B-cell lymphoma cells (Karpas 422 cell); assay: Karpas 422 cell proliferation, Calcein AM staining; assay type: cell-based; details: Homo sapiens, KARPAS-422; data of 14th day; read-out: Karpas422 Proliferation IC50 Nanomoles per Liter
[3] = Pharmacokinetic experiment in rats; assay type: in vivo, SD rats
Experimental: A certain amount of compound was weighted and dissolved in 0.1% Tween under vortex and ultrasound, and 0.5% carboxymethyl cellulose sodium (CMC-NA) solution was added to form a uniform solution.

[4] = system: human diffuse large cell lymphoma B lymphocytes (Pfeiffer cell); assay: Pfeiffer cell proliferation, Calcein AM staining; assay type: cell-based; details: Homo sapiens, Pfeiffer; data of 14th day; read-out: Pfeiffer Proliferation IC50 Nanomoles per Liter
Source text: The diffuse large cell lymphoma B lymphocytes (Pfeiffer cells) were collected and counted when growing well.

[5] = target: Mutant type EZH2(Y641F) (Homo sapiens (Human), UniProt Q15910, Y641F); assay: AlphaLISA, mutant type PRC2 complex EZH2(Y641F); assay type: biochemical; details: read-out: Mutant type EZH2(Y641F) IC50 Nanomoles per Liter
Sequence of Mutant type EZH2(Y641F) (Q15910 whole entry Y641F): as the sequence (Q15910 whole entry Y641N) above, with N641F counted along it
Sequence of Mutant type EZH2(Y641F) (O75530 whole entry partner): as the sequence (O75530 whole entry partner) above
Sequence of Mutant type EZH2(Y641F) (Q15022 whole entry partner): as the sequence (Q15022 whole entry partner) above
Sequence of Mutant type EZH2(Y641F) (Q09028 whole entry partner): as the sequence (Q09028 whole entry partner) above
Sequence of Mutant type EZH2(Y641F) (Q6ZN18 whole entry partner): as the sequence (Q6ZN18 whole entry partner) above

[6] = target: Mutant type EZH2(A677G) (Homo sapiens (Human), UniProt Q15910, A677G); assay: AlphaLISA, mutant type PRC2 complex EZH2(A677G); assay type: biochemical; details: read-out: Mutant type EZH2(A677G) IC59 Nanomoles per Liter
Sequence of Mutant type EZH2(A677G) (Q15910 whole entry A677G): as the sequence (Q15910 whole entry Y641N) above, with N641Y, A677G counted along it
Sequence of Mutant type EZH2(A677G) (O75530 whole entry partner): as the sequence (O75530 whole entry partner) above
Sequence of Mutant type EZH2(A677G) (Q15022 whole entry partner): as the sequence (Q15022 whole entry partner) above
Sequence of Mutant type EZH2(A677G) (Q09028 whole entry partner): as the sequence (Q09028 whole entry partner) above
Sequence of Mutant type EZH2(A677G) (Q6ZN18 whole entry partner): as the sequence (Q6ZN18 whole entry partner) above

[7] = target: wild-type EZH2 (Homo sapiens (Human), UniProt Q15910); assay: radiometric assay, activity to wild-type EZH2 of PRC2; details: read-out: Wild-type EZH2 IC50 Nanomoles per Liter
Sequence of wild-type EZH2 (Q15910 whole entry): as the sequence (Q15910 whole entry Y641N) above, with N641Y counted along it
Sequence of wild-type EZH2 (O75530 whole entry partner): as the sequence (O75530 whole entry partner) above
Sequence of wild-type EZH2 (Q15022 whole entry partner): as the sequence (Q15022 whole entry partner) above
Experimental: 25 μL of reaction solution was transferred to a scintillation plate, which was incubated at room temperature for 1 hour (h) and washed with deionized water and 0.1% Tween 20 for three times. A PerkinElmer liquid scintillation/luminescence counter was used to read the value, and GraphPad Prism 5 was used to calculate the median inhibitory concentration (IC50) of the compounds.

[8] = male, SD, rat, plasma, rats, Intravenous-Dose 4 mg/kg, read-out: Area Curve (AUC, ng/mL · h)
[9] = male, SD, rat, plasma; rats, Intravenous-Dose 4 mg/kg; read-out: Half life T1/2, h) (converted)
[10] = male, SD, rat, plasma, rats, Oral-Dose 20 mg/kg, read-out: Area Curve (AUC, ng/mL · h)
[11] = male, SD, rat, plasma, rats, Oral-Dose 20 mg/kg, read-out: Blood Drug level (Cmax, ng/mL)
[12] = male, SD, rat, plasma, rats, oral 20 mg/kg vs intravenous 4 mg/kg, read-out: Bioavailability (P %)
[13] = male, SD, rat, in vivo, iv, 4 mg/kg
[14] = male, SD, rat, in vivo, po, 20 mg/kg

| SMILES | pIC50 [1] | pIC50 [2] | AUC [3, 8] [ng·h/mL] | half-life [3, 9] [h] | AUC [3, 10] [ng·h/mL] | Cmax [3, 11] [ng/mL] | bioavailability [3, 12] [%] | pIC50 [4] | pIC50 [5] | pIC50 [6] | pIC50 [7] | AUC [3, 13] [ng·h/mL] | half-life [3, 13] [h] | AUC [3, 14] [ng·h/mL] | Cmax [3, 14] [ng/mL] | bioavailability [3, 14] [%] |
| --- | --- | --- | --- | --- | --- | --- | --- | --- | --- | --- | --- | --- | --- | --- | --- | --- |
| CCN(c1cc(-c2ccc3c(c2)NCC32CCOCC2)cc(C(=O)NCc2c(C)cc(C)[nH]c2=O)c1C)C1CCNCC1 [Example 6, N-((4,6-dimethyl-2-oxo-1,2-dihydropyridin-3-yl)methyl)-3-(ethyl(piperidin-4-yl)amino)-2-methyl-5-(2′,3′,5′,6′-tetrahydrospiro[dihydroindole-3,4′-pyran]-6-yl)benzamide] | 10.15 | 8.71 | 936 | 1.26 | 1190 | 494 | 25.5 | 8.94 | 9.70 | 9.70 | – | – | – | – | – | – |
| CCN(c1cc(-c2cc3c(cc2F)C2(CCOCC2)CC3)cc(C(=O)NCc2c(OC)cc(C)[nH]c2=O)c1C)C1CCOCC1 [Example 17, 3-(ethyl(tetrahydro-2H-pyran-4-yl)amino)-5-(6-fluoro-2,2′,3,3′,5′,6′-hexahydrospiro[indene-1,4′-pyran]-5-yl)-N-((4-methoxy-6-methyl-2-carbonyl-1,2-dihydropyridin-3-yl)methyl)-2-methylbenzamide] | 9.52 | 8.51 | – | – | – | – | – | 8.56 | – | – | 8.96 | – | – | – | – | – |
| CCN(c1cc(-c2cc3c(cc2F)CCC32CCOCC2)cc(C(=O)NCc2c(C)cc(C)[nH]c2=O)c1C)C1CCOCC1 [Example 24, N-((4,6-dimethyl-2-carbonyl-1,2-dihydropyridin-3-yl)methyl)-3-(ethyl(tetrahydro-2H-pyran-4-yl)amino)-5-(5-fluoro-2,2′,3,3′,5′,6′-hexahydrospiro[indene-1,4′-pyran]-6-yl)-2-methylbenzamide] | 9.64 | 9.39 | 943 | 1.08 | 1350 | 479 | 28.7 | 10.00 | 9.25 | 9.39 | – | – | – | – | – | – |
| CCN(c1cc(-c2ccc3c(c2)C=CC32CCN(C(C)C)CC2)cc(C(=O)NCc2c(OC)cc(C)[nH]c2=O)c1C)C1CCOCC1 [Example 37, 3-(ethyl(tetrahydro-2H-pyran-4-yl)amino)-5-(1′-isopropylspiro[indene-1,4′-piperidine]-5-yl)-N-((4-methoxy-6-methyl-2-carbonyl-1,2-dihydropyridin-3-yl)methyl)-2-methylbenzamide] | 9.64 | 9.02 | – | – | – | – | – | 9.06 | 9.27 | – | 9.22 | 903 | 1.25 | 1540 | 444 | 34.1 |
| CCN(c1cc(-c2ccc3c(c2)C(=O)C2(CCOCC2)C3)cc(C(=O)NCc2c(C)cc(C)[nH]c2=O)c1C)C1CCOCC1 [Example 78, N-((4,6-dimethyl-2-oxo-1,2-dihydropyridin-3-yl)methyl)-3-(ethyl(tetrahydro-2H-pyran-4-yl)amino)-2-methyl-5-(1-oxo-1,2′,3,3′,5′,6′-hexahydrospiro[indene-2,4′-pyran]-6-yl)benzamide] | 9.64 | 8.66 | – | – | – | – | – | 8.72 | – | – | 9.09 | – | – | – | – | – |
| CCN(c1cc(-c2ccc3c(c2)NC(=O)C32CCOCC2)cc(C(=O)NCc2c(C)cc(C)[nH]c2=O)c1C)C1CCN(C)CC1 [Example 81, N-((4,6-dimethyl-2-oxo-1,2-dihydropyridin-3-yl)methyl)-3-(ethyl(1-methylpiperidin-4-yl)amino)-2-methyl-5-(2-oxo-2′,3′,5′,6′-tetrahydrospiro[dihydroindole-3,4′-pyran]-6-yl)benzamide] | 9.32 | 8.44 | – | – | – | – | – | 8.33 | 9.05 | 9.20 | 8.86 | – | – | – | – | – |
| CCN(c1cc(-c2ccc3c(c2)NC(=O)C32CCOCC2)cc(C(=O)NCc2c(C)cc(C)[nH]c2=O)c1C)C1CCN(C2COC2)CC1 [Example 82, N-((4,6-dimethyl-2-oxo-1,2-dihydropyridin-3-yl)methyl)-2-methyl-3-(ethyl(1-(oxetan-3-yl)piperidin-4-yl)amino)-5-(2-oxo-2′,3′,5′,6′-tetrahydrospiro[dihydroindole-3,4′-pyran]-6-yl)benzamide] | 9.80 | 8.44 | – | – | – | – | – | 8.55 | 9.28 | – | 9.08 | – | – | – | – | – |
| CCN(c1cc(-c2ccc3c(c2)NC(=O)C32CCOCC2)cc(C(=O)NCc2c(C)cc(C)[nH]c2=O)c1C)C1CCS(=O)(=O)CC1 [Example 96, N-((4,6-Dimethyl-2-oxo-1,2-dihydropyridin-3-yl)methyl)-3-((ethyl)(1,1-dioxotetrahydro-2H-thiapyran-4-yl)amino)-2-methyl-5-(2-oxo-2′,3′,5′,6′-tetrahydrospiro[dihydroindole-3,4′-pyran]-6-yl)benzamide] | – | 8.34 | 990 | 1.64 | 1540 | 436 | 31.1 | 8.44 | 9.06 | 9.24 | 8.91 | – | – | – | – | – |
| CCN(c1cc(-c2ccc3c(c2)NC(=O)C32CCOCC2)cc(C(=O)NCc2c(C)cc(C)[nH]c2=O)c1C)C1CCC(N(C)C)CC1 (stereo not drawn) [Example 98, N-((4,6-Dimethyl-2-oxo-1,2-dihydropyridin-3-yl)methyl)-3-((ethyl)(4-dimethylamino-cyclohexyl)amino)-2-methyl-5-(2-oxo-2′,3′,5′,6′-tetrahydrospiro[dihydroindole-3,4′-pyran]-6-yl)benzamide] | 9.68 | 8.65 | – | – | – | – | – | 8.97 | 9.44 | – | 9.17 | – | – | – | – | – |
| CCN(c1cc(-c2ccc3c(c2)NC(=O)C32CCOCC2)cc(C(=O)NCc2c(C)cc(C)[nH]c2=O)c1C)C1CC(C)OC(C)C1 (stereo not drawn) [Example 104, N-((4,6-Dimethyl-2-oxo-1,2-dihydropyridin-3-yl)methyl)-3-(ethyl(2,6-dimethyltetrahydro-2H-pyran-4-yl)amino)-2-methyl-5-(2-oxo-2′,3′,5′,6′-tetrahydrospiro[dihydroindole-3,4′-pyran]-6-yl)benzamide] | 9.72 | 8.74 | – | – | – | – | – | 8.76 | 9.51 | 9.57 | – | – | – | – | – | – |
| CCN(c1cc(-c2ccc3c(c2)CCC2(CCOCC2)C3=O)cc(C(=O)NCc2c(C)cc(C)[nH]c2=O)c1C)C1CCOCC1 [Example 106, N-((4,6-Dimethyl-2-oxo-1,2-dihydropyridin-3-yl)methyl)-3-(ethyl(tetrahydro-2H-pyran-4-yl)amino)-2-methyl-5-(1-oxo-2′,3,3′,4,5′,6′-hexahydro-1H-spiro[naphthalene-2,4′-pyran]-6-yl)benzamide] | – | 8.41 | – | – | – | – | – | 8.47 | 9.09 | 9.15 | 9.01 | – | – | – | – | – |
| CCN(c1cc(-c2ccc3c(c2)C(=O)C2(CCN(C)CC2)C3)cc(C(=O)NCc2c(C)cc(C)[nH]c2=O)c1C)C1CCOCC1 [Example 107, N-((4,6-Dimethyl-2-oxo-1,2-dihydropyridin-3-yl)methyl)-3-(ethyl(tetrahydro-2H-pyran-4-yl)amino)-2-methyl-5-(1′-methyl-1-oxo-1,3-dihydrospiro[indene-2,4′-piperidine]-6-yl)benzamide] | – | 8.24 | – | – | – | – | – | 8.36 | 9.07 | 9.17 | 8.99 | – | – | – | – | – |
| CCN(c1cc(-c2ccc3c(c2)CCC32CCOCC2)cc(C(=O)NCc2c(OC)cc(C)[nH]c2=O)c1C)C1CCOCC1 [Example 113, 3-(Ethyl(tetrahydro-2H-pyran-4-yl)amino)-5-(2,2′,3,3′,5′,6′-hexahydrospiro[indene-1,4′-pyran]-5-yl)-N-((4-methoxy-6-methyl-2-oxo-1,2-dihydropyridin-3-yl)methyl)-2-methylbenzamide] | 9.57 | 8.60 | – | – | – | – | – | 8.78 | 9.27 | 9.42 | – | – | – | – | – | – |
| CCN(c1cc(-c2ccc3c(c2)NC(=O)C32CCNCC2)cc(C(=O)NCc2c(C)cc(C)[nH]c2=O)c1C)C1CCNCC1 [Example 117, N-((4,6-dimethyl-2-oxo-1,2-dihydropyridin-3-yl)methyl)-3-(ethyl(piperidin-4-yl)amino)-2-methyl-5-(2-oxospiro[indole-3,4′-piperidine]-6-yl)benzamide] | – | 8.45 | – | – | – | – | – | 8.64 | 9.03 | 9.21 | 8.97 | – | – | – | – | – |
| CCN(c1cc(-c2ccc3c(c2)NC(=O)C32CCOCC2)cc(C(=O)NCc2c(OC)cc(C)[nH]c2=O)c1C)C1CCC(N(C)C2COC2)CC1 (stereo not drawn) [Example 122, 3-(Ethyl(4-(methyl(oxetan-3-yl)amino)cyclohexyl)amino)-N-((4-methoxy-6-methyl-2-oxo-1,2-dihydropyridin-3-yl)methyl)-2-methyl-5-(2-oxo-2′,3′,5′,6′-tetrahydrospiro[dihydroindole-3,4′-pyran]-6-yl)benzamide] | 9.68 | 8.61 | – | – | – | – | – | 8.54 | – | – | 9.06 | – | – | – | – | – |
